Measurements: patent publication US9662322B2 (TEVA PHARMACEUTICAL INDUSTRIES, LTD., priority 2014, dated 2017)

Assays:
[1] = test system: subjects with relapsing remitting multiple sclerosis (RRMS); experiment: ALLEGRO (MS-LAQ-301) Phase III trial: relapse endpoints; assay type: in vivo, human
Description: The primary endpoint of the study was the number of confirmed relapses during the double-blind treatment period, which corresponds to the annualized relapse rate (ARR—number of relapses divided by total exposure of all patients). Secondary endpoints included disability as measured by Expanded Disability Status Scale (EDSS) changes confirmed at 3 months, and cumulative number of gadolinium enhancing (GdE) and new/enlarging T2 MRI lesions. […] Eligible subjects were equally randomized 1:1 into one of the following treatment arms: • 1. […] 21, 2007 (see, page 10, line 5 to page 11, line 3). • 2. Matching placebo for laquinimod arm: one capsule is administered once daily. The primary endpoint was the number of confirmed relapses during the double-blind study period. A relapse was defined as the appearance of one or more new neurological abnormalities or the reappearance of one or more previously observed neurological abnormalities lasting for at least 48 hours and after an improved neurological state for at least 30 days. An event was counted as a relapse if the subject's symptoms were accompanied by observed objective neurological changes consistent with at least one of the following: an increase of at least 0.5 in the EDSS score; an increase of one grade in two or more of the seven functional systems; or an increase of two grades in one functional system. Standardized treatment of relapses was intravenous methylprednisolone 1 g/day for up to five consecutive days based on the treating neurologist's decision. The number of confirmed relapses (and Annualized relapse rate) during the double blind study period. The analysis of the total number of confirmed relapses during the study period is based on baseline adjusted Quasi-Likelihood (over-dispersed) Poisson Regression. Using the Poisson regression with the treatment group as a covariate, the ARR of each group was calculated for the intent-to-treat (ITT) cohort as the total number of confirmed relapses for all patients in each group divided by the total patient years in that group. In addition to the treatment group, the following covariates were included: baseline EDSS score, log of the (prior 2-year number of relapses +1) and country or geographical region.

[2] = test system: subjects with relapsing remitting multiple sclerosis (RRMS); experiment: ALLEGRO Phase III trial: safety and tolerability; assay type: in vivo, human
Protocol: The following assessments were performed at specified time points: • 1. Vital signs were measured at each study visit. • 2. A physical examination is performed at months −1 (screening), 0 (baseline) 1, 3, 6, 12, 18 and 24 (termination/early discontinuation core study). In case of the 6 months extended study, additional examination was performed at month 30 (termination/early discontinuation of extended study). • 3. The following safety clinical laboratory tests were performed: • a. Complete blood count (CBC) with differential—at all scheduled visits. A reticulocyte count was added to the CBC at months 0 (baseline) and 24/30 (termination/early discontinuation). • b. Serum chemistry (including electrolytes, liver enzymes, direct and total bilirubin and pancreatic amylase and CPK), and urinalysis—at all scheduled visits. • c. A rapid urine β-hCG test was performed in women of child-bearing potential at baseline (month 0) and at each scheduled study visit thereafter (at site). • d. β-hCG in women of child-bearing potential was performed at all scheduled visits. • e. Starting after visit Month 3 a rapid urine β-hCG test was performed in women of child-bearing potential every 28 (±2) days. The subject was contacted by telephone within 72 hours after the test was scheduled to be performed and asked specific questions regarding the test. In case of suspected pregnancy (positive urine β-hCG test result), the caller made sure that the study drug has been discontinued and the subject was instructed to arrive at the site as soon as possible with all study drugs. • 4. Markers of inflammation (serum conventional C-reactive protein and fibrinogen)—at screening, baseline and all scheduled visits thereafter. • 5. During the first 3 months periodical phone calls were placed by the site personnel every two weeks. […] ECG was performed at months −1 (screening; additional recording, up to 30 minutes apart is performed if QTc is […] 450 msec), (baseline; three recordings, 15 minutes apart), 1, 2, 3, 6, 12, 18 and 24 (termination/early discontinuation). In case of the 6 months extended study, ECG is performed at month 30 (termination/early discontinuation of the extended study). • 7. Chest X-ray is performed at months −1 (screening), (if not performed within 7 months prior to the screening visit). • 8. Adverse Events (AEs) are monitored throughout the study. • 9. Concomitant medications are monitored throughout the study. • 10. Neurological evaluations, including Expanded Disability Status Scale (EDSS), 25 foot walk test/Ambulation Index (AI), Functional systems (FS) are performed at months −1 (screening), 0 (baseline) and every 3 months during the study and the extended study period. • 11. MS functional Composite (MSFC) was assessed at months −1 (screening) (three practices for training purposes only), at month 0 (baseline), 6, 12, 18 and 24 (termination/early discontinuation). In case of the 6 months extended study, the last MSFC was performed at months 30 (termination/early discontinuation of the extended study). • 12. Subject-reported fatigue was assessed by the Modified Fatigue Impact Scale (MFIS) at months 0, 6, 12, 18, and 24 (termination/early discontinuation). In case of the 6 months extended study, additional MFIS was performed at month 30 (termination/early discontinuation of the extended study). • 13. The general health status was assessed by the EuroQoL (EQ5D) questionnaire at month 0 (baseline) and month 24 (termination/early discontinuation of the study). In case of the 6 months extended study, the last EuroQoL (EQ5D) was performed at month 30 (termination/early discontinuation of the extended study) instead of month 24. • 14. The general health status was assessed by the Short-Form general health survey (SF-36) subject-reported questionnaire at month 0 (baseline) and every 6 months thereafter, until termination/early discontinuation. • 15. […]

patients with RRMS = settings: pooled ALLEGRO and BRAVO, all patients, 0.6 mg QD vs PBO; cited from earlier work
[3] = post-hoc, vs placebo, listed as laquinimod

## CCN(C(=O)c1c(O)c2c(Cl)cccc2n(C)c1=O)c1ccccc1 [Laquinimod, laquinimod]
[1]; post-hoc
  Relapses requiring hospitalization (annualized rate): 0.071
[1]; post-hoc, vs placebo
  ARR 1st year, Effect: 24% reduction
  ARR by median relapse duration: >34 days, Effect: 1.3% reduction
  ARR by median relapse duration: ≦34 days, Effect: 37% reduction
  ARR for dropouts, Effect: 26% reduction
  ARR, Full recovery, Effect: 13% reduction
  ARR, No recovery, Effect: 24% reduction
  Relapses requiring IV steroids, Effect: 27% reduction
  Relapses requiring hospitalization, Effect: 38% reduction
  Unconfirmed relapses, Effect: 17% reduction
[1]; [3]
  Relapses requiring IV steroids, Effect: 27 % reduction
  Relapses requiring hospitalization, Effect: 38 % reduction
[1]; post-hoc, recovery refers to EDSS before and after attack
  ARR, No recovery: 0.06
[1]; vs placebo
  Annualized rate of relapses requiring hospitalization and/or IV steroids, Effect: 27% reduction
  Relapse-free during study, increase in odds to be relapse free: 55% increase odds to
[1]; vs placebo, listed as laquinimod
  Relapse-free during study, increase in odds to be relapse free: 55%
[2]; 0.6 mg daily, 24 months
  Deaths: No deaths
[2]; human, in vivo, 24 months
  ALT elevations ≧5×ULN, patients: 8
  Abdominal pain, % of patients: 5.8%
  Adverse events, number: 3309
  Appendicitis: 5 cases
  Back pain, % of patients: 16.4%
  Cough, % of patients: 7.5%
  Neoplasms: 8 cases
  Patients reporting 1 or more adverse events: 87%
  Serious adverse events (SAEs) reported, total: 122
  Shift to ALT ≧3×ULN and <5×ULN, % of patients: 4.9%
  Study discontinuation associated with these adverse events (abdominal pain, back pain, cough): 3%
  Treatment discontinuation due to ALT≧3 and <5×ULN, patients: 7
[2]; in vivo
  Liver failure: no cases of liver failure
Patients with RRMS
  Reduction in 6-month confirmed disability progression (CDP): 46%
